# Laboratory results published in ChEMBL document CHEMBL4765420, “Design, synthesis and biological evaluation of novel HDAC inhibitors with improved pharmacokinetic profile in breast cancer” (Eur J Med Chem, 2020).
# Calls of active or inactive are those of the source. The rule behind the calls is not given here.
# Legend:
# Histone deacetylase 4 = Histone deacetylase 4 (Homo sapiens, UniProt P56524); assay: Inhibition of recombinant human N-terminal GST-tagged HDAC4 (627 to end residues) expressed in baculovirus infected Sf9 insect cells using AcLeu-Gly-Lys(Tfa)-AMC as substrate measured after 30 mins by fluorescence assay
# Histone deacetylase 4, sequence (P56524 whole entry): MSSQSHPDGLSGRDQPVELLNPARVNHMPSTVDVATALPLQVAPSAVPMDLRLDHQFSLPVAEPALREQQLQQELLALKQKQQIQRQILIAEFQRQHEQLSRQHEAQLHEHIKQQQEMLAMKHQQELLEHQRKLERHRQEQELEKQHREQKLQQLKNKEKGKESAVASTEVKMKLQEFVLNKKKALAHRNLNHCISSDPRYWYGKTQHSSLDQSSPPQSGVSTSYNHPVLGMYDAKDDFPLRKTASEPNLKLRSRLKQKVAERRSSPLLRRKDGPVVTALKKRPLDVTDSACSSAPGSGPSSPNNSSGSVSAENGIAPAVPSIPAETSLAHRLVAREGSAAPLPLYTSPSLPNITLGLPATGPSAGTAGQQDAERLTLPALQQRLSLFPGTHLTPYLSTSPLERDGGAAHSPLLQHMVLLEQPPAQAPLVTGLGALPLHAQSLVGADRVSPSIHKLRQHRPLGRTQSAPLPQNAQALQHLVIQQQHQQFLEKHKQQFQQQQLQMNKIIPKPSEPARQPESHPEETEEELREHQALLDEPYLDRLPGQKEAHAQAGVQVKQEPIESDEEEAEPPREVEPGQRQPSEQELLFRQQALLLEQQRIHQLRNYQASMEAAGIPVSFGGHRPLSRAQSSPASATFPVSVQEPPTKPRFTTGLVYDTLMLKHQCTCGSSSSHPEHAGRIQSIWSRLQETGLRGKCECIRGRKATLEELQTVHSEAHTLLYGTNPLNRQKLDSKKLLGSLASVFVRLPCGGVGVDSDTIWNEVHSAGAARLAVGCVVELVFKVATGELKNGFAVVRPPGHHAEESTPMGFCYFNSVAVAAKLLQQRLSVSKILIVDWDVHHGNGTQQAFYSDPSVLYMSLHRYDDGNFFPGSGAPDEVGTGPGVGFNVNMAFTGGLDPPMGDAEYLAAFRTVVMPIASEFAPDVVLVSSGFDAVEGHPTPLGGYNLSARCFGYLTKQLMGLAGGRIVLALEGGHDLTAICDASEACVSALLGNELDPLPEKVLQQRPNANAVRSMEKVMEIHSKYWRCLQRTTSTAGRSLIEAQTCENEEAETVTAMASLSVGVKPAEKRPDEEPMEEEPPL
# MDA-MB-231 [1] = assay: Induction of apoptosis in human MDA-MB-231 cells assessed as late apoptotic cells at 2.5 uM measured after 24 hrs by Annexin-V/propidium iodide staining based flow cytometry (reference value: 0.71 to 2.94%); type: functional
# Histone deacetylase 11 = target: T1, Histone deacetylase 11 (Homo sapiens, UniProt Q96DB2); assay: Inhibition of recombinant human N-terminal His-tagged HDAC11 expressed in baculovirus infected Sf9 insect cells using Ac-Arg-His-Lys(Ac)-Lys(Ac)-AMC as substrate measured after 30 mins by fluorescence assay
# T1 sequence (Q96DB2 whole entry): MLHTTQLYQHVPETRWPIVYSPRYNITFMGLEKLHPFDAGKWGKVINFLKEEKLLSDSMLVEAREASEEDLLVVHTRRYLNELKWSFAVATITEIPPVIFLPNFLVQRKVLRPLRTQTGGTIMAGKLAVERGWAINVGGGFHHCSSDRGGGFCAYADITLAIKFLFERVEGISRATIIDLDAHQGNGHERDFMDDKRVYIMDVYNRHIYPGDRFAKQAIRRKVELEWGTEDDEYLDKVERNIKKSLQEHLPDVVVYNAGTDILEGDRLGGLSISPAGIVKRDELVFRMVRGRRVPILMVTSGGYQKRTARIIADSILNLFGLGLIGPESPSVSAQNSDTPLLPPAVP
# MDA-MB-231 [2] = assay: Induction of apoptosis in human MDA-MB-231 cells assessed as up regulation of Bax expression at 2.5 to 10 uM measured after 24 hrs by Western blot analysis; type: functional, cell-based; details: dose 2.5-10 µM
# MDA-MB-231 [3] = assay: Antiproliferative activity against human MDA-MB-231 cells measured after 72 hrs by MTT assay; type: functional, cell-based; details: MDA-MB-231, 72 h
# MDA-MB-231 [4] = assay: Induction of apoptosis in human MDA-MB-231 cells assessed as increase in cleaved caspase-3 expression at 2.5 to 10 uM measured after 24 hrs by Western blot analysis; type: functional, cell-based; details: dose 2.5-10 µM
# Histone deacetylase 1 = Histone deacetylase 1 (Homo sapiens, UniProt Q13547); assay: Inhibition of recombinant human His-tagged HDAC1 expressed in insect cells using Ac-Leu-Gly-Lys(Ac)-AMC as substrate measured after 30 mins by fluorescence assay
# Histone deacetylase 1, sequence (Q13547 whole entry): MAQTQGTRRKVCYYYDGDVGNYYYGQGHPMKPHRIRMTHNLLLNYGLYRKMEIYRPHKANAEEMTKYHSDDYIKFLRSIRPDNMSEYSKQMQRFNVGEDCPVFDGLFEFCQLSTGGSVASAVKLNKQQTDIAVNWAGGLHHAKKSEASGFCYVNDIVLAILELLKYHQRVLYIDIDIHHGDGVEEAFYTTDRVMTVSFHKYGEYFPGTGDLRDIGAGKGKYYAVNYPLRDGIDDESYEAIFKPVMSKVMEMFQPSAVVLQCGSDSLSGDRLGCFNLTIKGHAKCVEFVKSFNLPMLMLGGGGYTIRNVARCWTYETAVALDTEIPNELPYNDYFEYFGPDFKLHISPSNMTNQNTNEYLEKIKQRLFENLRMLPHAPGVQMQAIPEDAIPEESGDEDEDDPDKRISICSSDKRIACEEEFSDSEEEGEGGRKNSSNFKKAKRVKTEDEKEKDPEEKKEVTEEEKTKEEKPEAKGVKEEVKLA
# MDA-MB-231 [5] = assay: Induction of endoplasmic reticulum stress in human MDA-MB-231 cells assessed as increase in PERK expression at 2.5 to 10 uM measured after 24 hrs by Western blot analysis; type: functional, cell-based; details: dose 2.5-10 µM
# MDA-MB-231 [6] = assay: Induction of autophagy in human MDA-MB-231 cells assessed as increase in Beclin1 expression at 2.5 to 10 uM measured after 24 hrs by Western blot analysis; type: functional, cell-based; details: dose 2.5-10 µM
# Histone deacetylase 7 = target: T2, Histone deacetylase 7 (Homo sapiens, UniProt Q8WUI4); assay: Inhibition of HDAC7 (unknown origin) using AcLeu-Gly-Lys(Tfa)-AMC as substrate measured after 30 mins by fluorescence assay
# T2 sequence (Q8WUI4 whole entry): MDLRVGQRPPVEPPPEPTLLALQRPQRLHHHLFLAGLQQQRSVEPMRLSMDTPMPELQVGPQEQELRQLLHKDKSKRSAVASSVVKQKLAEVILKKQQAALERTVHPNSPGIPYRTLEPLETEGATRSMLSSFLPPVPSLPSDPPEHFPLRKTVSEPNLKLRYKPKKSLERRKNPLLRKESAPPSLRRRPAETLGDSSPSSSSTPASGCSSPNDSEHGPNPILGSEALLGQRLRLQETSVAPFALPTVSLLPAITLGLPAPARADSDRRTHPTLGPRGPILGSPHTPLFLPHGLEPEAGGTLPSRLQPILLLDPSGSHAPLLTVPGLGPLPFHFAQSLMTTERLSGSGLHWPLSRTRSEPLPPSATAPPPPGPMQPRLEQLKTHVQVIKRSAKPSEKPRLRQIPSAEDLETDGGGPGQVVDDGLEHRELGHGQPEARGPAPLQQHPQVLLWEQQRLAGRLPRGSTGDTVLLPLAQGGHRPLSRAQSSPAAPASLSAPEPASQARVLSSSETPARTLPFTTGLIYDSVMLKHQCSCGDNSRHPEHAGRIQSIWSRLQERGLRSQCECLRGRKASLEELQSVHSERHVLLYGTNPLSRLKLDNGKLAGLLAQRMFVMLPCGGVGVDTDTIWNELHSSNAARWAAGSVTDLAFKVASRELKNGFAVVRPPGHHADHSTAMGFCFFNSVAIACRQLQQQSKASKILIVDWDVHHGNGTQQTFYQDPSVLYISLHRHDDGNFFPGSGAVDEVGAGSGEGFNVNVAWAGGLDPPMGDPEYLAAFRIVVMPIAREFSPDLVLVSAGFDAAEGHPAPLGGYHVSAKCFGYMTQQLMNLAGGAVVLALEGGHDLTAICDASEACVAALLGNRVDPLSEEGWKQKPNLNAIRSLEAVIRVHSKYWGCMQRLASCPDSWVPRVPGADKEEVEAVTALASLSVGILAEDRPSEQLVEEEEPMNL
# MDA-MB-231 [7] = assay: Induction of endoplasmic reticulum stress in human MDA-MB-231 cells assessed as increase in PERK expression at 2.5 to 10 uM measured after 24 hrs by DAPI staining based immunofluorescence assay; type: functional, cell-based; details: dose 2.5-10 µM
# MDA-MB-231 [8] = assay: Induction of apoptosis in human MDA-MB-231 cells assessed as increase in cleaved caspase-9 expression at 2.5 to 10 uM measured after 24 hrs by Western blot analysis; type: functional, cell-based; details: dose 2.5-10 µM
# MDA-MB-231 [9] = assay: Induction of apoptosis in human MDA-MB-231 cells assessed as necrotic cells at 5 uM measured after 24 hrs by Annexin-V/propidium iodide staining based flow cytometry (reference value: 0.22 to 0.46%); type: functional
smiles,measurement,setting,value
COc1cc(OC)c2c(N3CCS(=O)(=O)CC3)nc(-c3cc(C)c(OCCCCCC(=O)NO)c(C)c3)nc2c1,IC50,Histone deacetylase 4,> 1000 nM
same,Activity,MDA-MB-231 [1],3.01%
same,IC50,Histone deacetylase 11,> 1000 nM
same,Activity,MDA-MB-231 [2],Active
same,IC50,MDA-MB-231 [3],898 nM
same,Activity,MDA-MB-231 [4],Active
same,IC50,Histone deacetylase 1,99.6 nM
same,Activity,MDA-MB-231 [5],Active
same,Activity,MDA-MB-231 [6],Active
same,IC50,Histone deacetylase 7,> 1000 nM
same,Activity,MDA-MB-231 [7],Active
same,Activity,MDA-MB-231 [8],Active
same,Activity,MDA-MB-231 [9],0.41%
